ChEMBL document CHEMBL5634109, “Synthesis and mechanism of action of new purine derivatives against triple negative breast cancer” (Eur J Med Chem, 2023)
Calls of active or inactive are those of the source. The calls are words filed in the database; no cut-off is given here.

Tests used:
MDA-MB-231 [1] = test: Antiproliferative activity against human MDA-MB-231 cells assessed as reduction in viability at 4 uM incubated for 7.5 hrs by MTT assay; type: functional
MDA-MB-231 [2] = test: Antitumor activity against human MDA-MB-231 cells xenografted in nude mouse assessed as inhibition of spleen metastasis in tumor at 10 mg/kg, ip measured for 3 days; type: functional, organism-based; details: time 3.0 day
MDA-MB-231 [3] = test: Induction of apoptosis in human MDA-MB-231 cells assessed as formation of apoptotic bodies at 4 uM incubated for 6 hrs; type: functional, cell-based
[4] = molecular target: Dual specificity protein kinase CLK1 (Homo sapiens, UniProt P49759); test: Inhibition of CLK1 (unknown origin)
[5] = Antiproliferative activity against human HEK293 cells assessed as reduction in cell viability measured for 48 hrs by MTT assay; type: toxicity, cell-based
A549 = test: Antiproliferative activity against human A549 cells assessed as reduction in cell viability measured for 48 hrs by MTT assay; type: functional, cell-based; details: A549, 48 h
MDA-MB-231 [6] = test: Antitumor activity against human MDA-MB-231 cells xenografted in nude mouse assessed as inhibition of proliferation of tumor cells at 10 mg/kg, ip measured for 3 days by H and E staining based analysis; type: functional, organism-based; details: time 3.0 day
HUVEC [7] = test: Antiangiogenesis activity in HUVEC cells at 62.5 nM incubated for 12 hrs by microscopic analysis; type: functional, cell-based; details: Homo sapiens
MDA-MB-231 [8] = test: Induction of apoptosis in human MDA-MB-231 cells assessed as apoptotic cells at 4 uM incubated for 24 hrs by Annexin V-FITC/PI staining based analysis; type: functional
[9] = molecular target: Dual specificity protein kinase CLK4 (Homo sapiens, UniProt Q9HAZ1); test: Inhibition of CLK4 (unknown origin)
MDA-MB-231 [10] = test: Antitumor activity against human MDA-MB-231 cells xenografted in nude mouse assessed as decrease in Ki67 expression at 10 mg/kg, ip measured for 3 days by immunohistochemistry analysis; type: functional, organism-based; details: time 3.0 day
MDA-MB-468 = test: Antiproliferative activity against human MDA-MB-468 cells assessed as reduction in cell viability measured for 48 hrs by MTT assay; type: functional, cell-based; details: MDA-MB-468, 48 h
MDA-MB-231 [11] = test: Antiproliferative activity against human MDA-MB-231 cells assessed as reduction in cell viability measured for 48 hrs by MTT assay; type: functional, cell-based; details: MDA-MB-231, 48 h
HUVEC [12] = test: Antiangiogenesis activity in HUVEC cells at 0.03 to 0.3 uM incubated for 12 hrs by microscopic analysis; type: functional, cell-based; details: Homo sapiens, dose 0.03-0.3 µM
MDA-MB-231 [13] = test: Induction of apoptosis in human MDA-MB-231 cells assessed as apoptotic cells at 40 uM incubated for 12 hrs by Annexin V-FITC/PI staining based analysis; type: functional
MDA-MB-231 [14] = test: Induction of apoptosis in human MDA-MB-231 cells assessed as change in cell shape at 4 uM incubated for 12 to 24 hrs; type: functional, cell-based; details: time 12-24 hrs
Cell membrane = test: Induction of mitochondrial membrane potential loss in human MDA-MB-231 cells assessed as increase in fluorescence intensity at 40 uM incubated for 48 hrs by TMRM dye based flow cytometry analysis (reference value: 97.5%)
[15] = molecular target: Casein kinase I isoform epsilon (Homo sapiens, UniProt P49674); test: Inhibition of CK1epsilon (unknown origin)
MDA-MB-231 [16] = test: Antitumor activity against human MDA-MB-231 cells xenografted in nude mouse assessed as inhibition of lung metastasis in tumor at 10 mg/kg, ip measured for 3 days; type: functional, organism-based; details: time 3.0 day
MDA-MB-231 [17] = test: Induction of apoptosis in human MDA-MB-231 cells assessed as apoptotic cells at 4 uM incubated for 12 hrs by Annexin V-FITC/PI staining based analysis; type: functional
MDA-MB-231 [18] = test: Induction of apoptosis in human MDA-MB-231 cells assessed as apoptotic cells at 40 uM incubated for 48 hrs by Annexin V-FITC/PI staining based analysis; type: functional
K562 = test: Antiproliferative activity against human K562 cells assessed as reduction in cell viability measured for 48 hrs by MTT assay; type: functional, cell-based; details: K562, 48 h
MDA-MB-231 [19] = test: Antitumor activity against human MDA-MB-231 cells xenografted in nude mouse assessed as decrease in CD31 expression at 10 mg/kg, ip measured for 3 days by immunohistochemistry analysis; type: functional, organism-based; details: time 3.0 day
NCI-H1299 = test: Antiproliferative activity against human NCI-H1299 cells assessed as reduction in cell viability measured for 48 hrs by MTT assay; type: functional, cell-based; details: NCI-H1299, 48 h
MDA-MB-231 [20] = test: Antitumor activity against human MDA-MB-231 cells xenografted in nude mouse assessed as decrease in tumor size at 10 to 20 mg/kg, ip measured for 3 days; type: functional, organism-based; details: dose 10-20 mg/kg, time 3.0 day
[21] = molecular target: Dual specificity protein kinase CLK2 (Homo sapiens, UniProt P49760); test: Inhibition of CLK2 (unknown origin)
MDA-MB-231 [22] = test: Induction of apoptosis in human MDA-MB-231 cells assessed as increase in number of cell debris at 4 uM incubated for 48 hrs; type: functional, cell-based
HT-29 = test: Antiproliferative activity against human HT-29 cells assessed as reduction in cell viability measured for 48 hrs by MTT assay; type: functional, cell-based; details: HT-29, 48 h
MCF7 = test: Antiproliferative activity against human MCF7 cells assessed as reduction in cell viability measured for 48 hrs by MTT assay; type: functional, cell-based; details: MCF7, 48 h
MDA-MB-231 [23] = test: Induction of ROS generation in human MDA-MB-231 cells assessed as increase in intracellular ROS level at 40 uM incubated for 48 hrs by DCFH-DA staining based fluorescence microscopic analysis (Rvb=41.4%); type: functional
HCT-116 = test: Antiproliferative activity against human HCT-116 cells assessed as reduction in cell viability measured for 48 hrs by MTT assay; type: functional, cell-based; details: HCT-116, 48 h
[24] = molecular target: Cyclin-dependent kinase 7 (Homo sapiens, UniProt P50613); test: Inhibition of CDK7 (unknown origin)
[25] = molecular target: Dual specificity tyrosine-phosphorylation-regulated kinase 1A (Homo sapiens, UniProt Q13627); test: Inhibition of DYRK1A (unknown origin)
MDA-MB-231 [26] = test: Induction of apoptosis in human MDA-MB-231 cells assessed as apoptotic cells at 40 uM incubated for 24 hrs by Annexin V-FITC/PI staining based analysis; type: functional
[27] = Toxicity in nude mouse xenografted with human MDA-MB-231 cells assessed as change in body weight at 10 to 20 mg/kg, ip measured for 3 days; type: organism-based; details: in vivo, 72 h, dose 10-20 mg/kg, time 3 day
MDA-MB-231 [28] = test: Antiproliferative activity against human MDA-MB-231 cells assessed as reduction in viability at 10 uM incubated for 7.5 hrs by MTT assay; type: functional
PC-3 = test: Antiproliferative activity against human PC-3 cells assessed as reduction in cell viability measured for 48 hrs by MTT assay; type: functional, cell-based; details: PC-3, 48 h
MDA-MB-231 [29] = test: Induction of apoptosis in human MDA-MB-231 cells assessed as apoptotic cells at 4 uM incubated for 48 hrs by Annexin V-FITC/PI staining based analysis; type: functional
MDA-MB-231 [30] = test: Inhibition of cell migration human MDA-MB-231 cells at 0.01 to 0.4 uM incubated for 20 hrs by DAPI staining based analysis; type: functional; details: dose 0.01-0.4 µM
MGC-803 = test: Antiproliferative activity against human MGC-803 cells assessed as reduction in cell viability measured for 48 hrs by MTT assay; type: functional, cell-based; details: MGC-803, 48 h
[31] = Antiproliferative activity against human HUVEC cells assessed as reduction in cell viability measured for 48 hrs by MTT assay; type: toxicity, cell-based
HepG2 = test: Antiproliferative activity against human HepG2 cells assessed as reduction in cell viability measured for 48 hrs by MTT assay; type: functional, cell-based; details: HepG2, 48 h
MDA-MB-231 [32] = test: Inhibition of cell migration human MDA-MB-231 cells assessed as migration distance at 25 uM incubated for 48 hrs by wound healing assay (reference value: 642.72 micrometer); type: functional
MDA-MB-231 [33] = test: Inhibition of cell migration human MDA-MB-231 cells assessed as migration distance at 25 uM incubated for 24 hrs by wound healing assay (reference value: 642.72 micrometer); type: functional
MDA-MB-231 [34] = test: Induction of apoptosis in human MDA-MB-231 cells assessed as increase in number of apoptotic bodies at 4 uM incubated for 48 hrs; type: functional, cell-based
MDA-MB-231 [35] = test: Antitumor activity against human MDA-MB-231 cells xenografted in nude mouse assessed as reduction in tumor growth at 10 to 20 mg/kg, ip measured for 3 days; type: functional, organism-based; details: dose 10-20 mg/kg, time 3.0 day
[36] = Hepatotoxicity in nude mouse at 10 mg/kg, ip measured for 3 days; type: toxicity, organism-based; details: in vivo, 72 h, time 3 day

Sequence of Dual specificity protein kinase CLK2 (P49760 whole entry): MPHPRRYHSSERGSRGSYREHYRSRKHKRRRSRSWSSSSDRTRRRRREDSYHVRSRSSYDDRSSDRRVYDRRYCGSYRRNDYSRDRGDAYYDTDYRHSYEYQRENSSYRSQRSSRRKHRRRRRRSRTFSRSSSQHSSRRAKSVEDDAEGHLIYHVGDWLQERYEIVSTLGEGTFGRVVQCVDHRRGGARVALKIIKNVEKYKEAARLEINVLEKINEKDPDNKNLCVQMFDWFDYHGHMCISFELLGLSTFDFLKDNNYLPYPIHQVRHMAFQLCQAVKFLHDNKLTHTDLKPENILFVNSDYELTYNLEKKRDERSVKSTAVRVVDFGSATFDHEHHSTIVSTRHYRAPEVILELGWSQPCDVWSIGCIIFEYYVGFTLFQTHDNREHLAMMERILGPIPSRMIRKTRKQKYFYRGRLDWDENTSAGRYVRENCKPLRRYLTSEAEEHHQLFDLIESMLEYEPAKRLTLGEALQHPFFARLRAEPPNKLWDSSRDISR
Sequence of Dual specificity protein kinase CLK1 (P49759 whole entry): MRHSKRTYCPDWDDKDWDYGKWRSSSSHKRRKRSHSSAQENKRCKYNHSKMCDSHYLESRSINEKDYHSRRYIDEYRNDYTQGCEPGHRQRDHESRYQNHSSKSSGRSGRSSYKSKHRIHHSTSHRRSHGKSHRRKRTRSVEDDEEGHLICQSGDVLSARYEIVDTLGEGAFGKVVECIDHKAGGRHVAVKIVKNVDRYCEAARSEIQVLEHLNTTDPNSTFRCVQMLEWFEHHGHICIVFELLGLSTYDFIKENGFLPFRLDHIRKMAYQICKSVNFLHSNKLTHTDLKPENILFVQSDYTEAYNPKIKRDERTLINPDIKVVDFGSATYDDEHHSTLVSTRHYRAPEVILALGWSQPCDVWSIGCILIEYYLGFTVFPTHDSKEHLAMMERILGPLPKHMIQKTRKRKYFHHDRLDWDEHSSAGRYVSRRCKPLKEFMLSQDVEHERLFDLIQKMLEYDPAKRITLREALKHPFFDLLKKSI
Sequence of Cyclin-dependent kinase 7 (P50613 whole entry): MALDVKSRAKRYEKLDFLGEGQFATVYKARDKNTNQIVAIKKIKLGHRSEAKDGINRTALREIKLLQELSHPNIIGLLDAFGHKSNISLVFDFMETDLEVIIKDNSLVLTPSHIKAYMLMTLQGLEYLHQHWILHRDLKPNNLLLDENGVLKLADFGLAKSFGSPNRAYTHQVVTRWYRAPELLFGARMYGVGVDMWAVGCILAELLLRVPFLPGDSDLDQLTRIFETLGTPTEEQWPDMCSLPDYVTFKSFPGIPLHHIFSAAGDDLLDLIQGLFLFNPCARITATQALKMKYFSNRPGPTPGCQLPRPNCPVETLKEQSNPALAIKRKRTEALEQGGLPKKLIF
Sequence of Dual specificity protein kinase CLK4 (Q9HAZ1 whole entry): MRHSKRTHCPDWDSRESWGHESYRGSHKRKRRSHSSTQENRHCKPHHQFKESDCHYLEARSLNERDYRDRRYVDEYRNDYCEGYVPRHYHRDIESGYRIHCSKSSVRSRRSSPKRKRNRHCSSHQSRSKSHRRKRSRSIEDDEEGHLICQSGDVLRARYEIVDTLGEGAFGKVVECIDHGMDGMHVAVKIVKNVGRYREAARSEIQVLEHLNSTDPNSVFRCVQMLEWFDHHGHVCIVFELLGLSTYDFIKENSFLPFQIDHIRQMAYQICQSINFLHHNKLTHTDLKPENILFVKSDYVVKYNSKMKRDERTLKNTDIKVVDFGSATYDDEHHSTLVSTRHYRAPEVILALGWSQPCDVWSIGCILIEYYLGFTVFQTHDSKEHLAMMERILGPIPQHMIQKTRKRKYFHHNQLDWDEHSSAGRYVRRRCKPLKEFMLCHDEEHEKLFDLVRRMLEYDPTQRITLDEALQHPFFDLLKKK
Sequence of Casein kinase I isoform epsilon (P49674 whole entry, canonical isoform): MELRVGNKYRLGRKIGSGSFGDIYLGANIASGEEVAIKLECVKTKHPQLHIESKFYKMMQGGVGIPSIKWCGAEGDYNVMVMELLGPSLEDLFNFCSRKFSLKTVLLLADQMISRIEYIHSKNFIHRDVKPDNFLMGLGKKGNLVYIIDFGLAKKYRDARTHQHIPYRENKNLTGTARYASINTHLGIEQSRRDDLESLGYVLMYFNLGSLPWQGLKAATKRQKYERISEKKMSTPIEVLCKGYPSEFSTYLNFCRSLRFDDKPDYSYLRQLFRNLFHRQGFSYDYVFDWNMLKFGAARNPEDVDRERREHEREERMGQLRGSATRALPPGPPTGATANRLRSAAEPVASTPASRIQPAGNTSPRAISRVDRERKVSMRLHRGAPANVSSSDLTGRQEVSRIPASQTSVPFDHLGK

Compound: OCCN1CCC(C2CCN(c3nc(NCc4cccc(F)c4F)c4ncn(C5CCCC5)c4n3)CC2)CC1
- Activity (MDA-MB-231 [1]): ~100%
- Activity (MDA-MB-231 [2]): Active
- Activity (MDA-MB-231 [3]): Active
- IC50 [4]: 0.278 µM
- IC50 at 48 h [5]: 4.28 µM
- IC50 (A549): 0.37 µM
- Activity (MDA-MB-231 [6]): Active
- Activity (HUVEC [7]): Active
- Activity (MDA-MB-231 [8]): 13%
- IC50 [9]: 0.073 µM
- Activity (MDA-MB-231 [10]): Active
- IC50 (MDA-MB-468): 3.69 µM
- IC50 (MDA-MB-231 [11]): 3.55 µM
- Activity (HUVEC [12]): Active
- Activity (MDA-MB-231 [13]): >95%
- Activity (MDA-MB-231 [14]): Active
- Activity (Cell membrane): 80.9%
- IC50 [15]: 0.038 µM
- Activity (MDA-MB-231 [16]): Active
- Activity (MDA-MB-231 [17]): 5.6%
- Activity (MDA-MB-231 [18]): >95%
- IC50 (K562): 0.24 µM
- Activity (MDA-MB-231 [19]): Active
- IC50 (NCI-H1299): 4.05 µM
- Activity (MDA-MB-231 [20]): Active
- IC50 [21]: 0.023 µM
- Activity (MDA-MB-231 [22]): Active
- IC50 (HT-29): 3.37 µM
- IC50 (MCF7): 2.67 µM
- Activity (MDA-MB-231 [23]): 48.6%
- IC50 (HCT-116): 2.79 µM
- IC50 [24]: 0.39 µM
- IC50 [25]: 0.122 µM
- Activity (MDA-MB-231 [26]): >95%
- Activity [27]: Non-Toxic
- Activity (MDA-MB-231 [28]): ~100%
- IC50 (PC-3): 3.92 µM
- Activity (MDA-MB-231 [29]): 54.9%
- inhibition (MDA-MB-231 [30]): Active
- IC50 (MGC-803): 3.52 µM
- IC50 at 48 h [31]: 6.18 µM
- IC50 (HepG2): 0.25 µM
- Activity (MDA-MB-231 [32]): 53.38 um
- Activity (MDA-MB-231 [33]): 24.88 um
- Activity (MDA-MB-231 [34]): Active
- Activity (MDA-MB-231 [35]): Active
- Activity [36]: Non-Toxic
